# Measurements from patent US20250282799A1, “SUBSTITUTED PYRIDO[4,3-d]PYRIMIDINES AS KRAS MODULATORS” (Alterome Therapeutics, Inc., priority 2023, published 2025).
# Tested on: KRAS G12V dependent lung adenocarcinoma cell line, NCI-H441
# Experiment: Cellular pERK (Thr202/Tyr204) FRET/HTRF assay
# Format: cell-based
# Details: Homo sapiens, NCI-H441, pERK HTRF, NCI-H441 cells (KRAS G12V)
# Procedure, shortened: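 Phospho-ERK1/2 (Thr202/Tyr204) quantified by two-antibody HTRF in lysed NCI-H441 cells. Cells seeded overnight, treated with test compounds for 1 hr at 37 °C against DMSO control, then lysed and detected at room temperature; IC50 obtained by curve fitting.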
row,SMILES,IC50 [nM]
1,"[2H]C([2H])(Oc1nc(N2CCCC[C@H]3[C@H](F)[C@H]32)c2cnc(-c3cc(N)cc4ccc(F)c(C#C)c34)c(F)c2n1)[C@@]12CCCN1C[C@H](F)C2 [Example 82, 5-Ethynyl-6-fluoro-4-(8-fluoro-4-((1S,7R,8S)-8-fluoro-2-azabicyclo[5.1.0]octan-2-yl)-2-(((2R,7aS)-2-fluorotetrahydro-1H-pyrrolizin-7a(5H)-yl)methoxy-d2)pyrido[4,3-d]pyrimidin-7-yl)naphthalen-2-amine]",< 50
2,"[2H]C([2H])(Oc1nc(N2CCOC[C@H]3[C@H](F)[C@H]32)c2cnc(-c3cc(N)cc4ccc(F)c(C#C)c34)c(F)c2n1)[C@@]12CCCN1C[C@H](F)C2 [Example 87, 5-Ethynyl-6-fluoro-4-(8-fluoro-4-((1S,7S,8S)-8-fluoro-5-oxa-2-azabicyclo[5.1.0]octan-2-yl)-2-(((2R,7aS)-2-fluorotetrahydro-1H-pyrrolizin-7a(5H)-yl)methoxy-d2)pyrido[4,3-d]pyrimidin-7-yl)naphthalen-2-amine]",< 50
3,"[2H]C([2H])(Oc1nc(N2CCOC[C@H]3[C@H](F)[C@H]32)c2cnc(-c3cc(N)cc4cc(F)c(F)c(C#C)c34)c(F)c2n1)[C@@]12CCCN1C[C@H](F)C2 [Example 28, 5-Ethynyl-6,7-difluoro-4-(8-fluoro-4-((1S,7S,8S)-8-fluoro-5-oxa-2-azabicyclo[5.1.0]octan-2-yl)-2-(((2R,7aS)-2-fluorotetrahydro-1H-pyrrolizin-7a(5H)-yl)methoxy-d2)pyrido[4,3-d]pyrimidin-7-yl)naphthalen-2-amine]",< 50
4,"[2H]C([2H])(Oc1nc(N2CCCC[C@H]3[C@H](F)[C@H]32)c2cnc(-c3cc(N)cc4cc(F)c(F)c(C#C)c34)c(F)c2n1)[C@@]12CCCN1C[C@H](F)C2 [Example 16, 5-Ethynyl-6,7-difluoro-4-(8-fluoro-4-((1S,7R,8S)-8-fluoro-2-azabicyclo[5.1.0]octan-2-yl)-2-(((2R,7aS)-2-fluorotetrahydro-1H-pyrrolizin-7a(5H)-yl)methoxy-d2)pyrido[4,3-d]pyrimidin-7-yl)naphthalen-2-amine]",< 50
